Results from patent US9586974B2, “Cyclic N-acyl O-amino phenol CBI derivative” (THE SCRIPPS RESEARCH LINSTITUTE, priority 2013, dated 2017).
Several values for one entry are separate records, joined by “and”; a condition that tells them apart may be missing. Equal entries are not always repeated. Entries after “also recorded” stand apart in the source; their conditions may differ. Where two headings read alike, the source gives them in different places.

Key:
w794 DNA = experiment: DNA alkylation studies, cell-free (thermally induced strand cleavage, PAGE autoradiography); format: biochemical; settings: for DNA alkylation: no deliberate activation
Description: DNA-agent incubation at 23° C. for 2 hours (h), removal of unbound agent by EtOH precipitation, and 30 minute thermolysis (100° C.) followed by 8% denaturing PAGE and autoradiography. Lane 1, control DNA; lanes 2-5, Sanger G, C, A, and T sequencing reactions; lane 6, Compound (+)-4 (1×10^−5 M); lane 7, Compound (+)-7 (1×10^−5 M); lanes 8-9, Compound (+)-7 (1×10^−5 M) incubated at 37° C. with 1 M L-glutathione for 12 hours and 24 hours.
DNA-agent incubation at 23° C. for 2 hours (h), removal of unbound agent by EtOH precipitation, and 30 minutes thermolysis (100° C.) followed by 8% denaturing PAGE and autoradiography.
Lane 1, control DNA; lanes 2-5, Sanger G, C, A, and T sequencing reactions; lanes 6-8, Compound (+)-4 (1×10^−4 to 1×10^−6 M); lanes 9-11, Compound (+)-6 (1×10^−2 to 1×10^−4 M).
Lane 1, control DNA; lanes 2-5, Sanger G, C, A, and T sequencing reactions; lanes 6-11, Compound (+)-4 (1×10^−4M, t=2, 4, 6, 8, 24, 48 hours); lanes 12-15, Compound (+)-6 (1×10^−2M, t=2, 4, 6, 8 hours).
Lane 1, control DNA; lanes 2-5, Sanger G, C, A, and T sequencing reactions; lane 6, Compound (+)-4 (1×10^−4 M); lanes 7-9, Compound (±)-19 (1×10^−3 to 1×10^−5 M).
See Boger et al., Tetrahedron 1991, 47:2661-2682 for full details of the DNA alkylation assay. The DNA alkylation reactions were conducted at […] with 5′-^32P-end-labeled w794 DNA, which contains a single major alkylation site for the natural products.

[1] = system: L1210 (ATCC CCL-219) mouse lymphocytic leukemia cells; experiment: Cell growth inhibition assay (phosphatase readout); format: cell-based
Description: Compounds were tested for their cell growth inhibition of L1210 (ATCC CCL-219) mouse lymphocytic leukemia cells. A population of cells (>1×10^6 cells/mL as determined with a hemocytometer) was diluted with an appropriate amount of Dulbecco-modified Eagle Medium (DMEM, Gibco) containing 10% fetal bovine serum (FBS, Gibco) to a final concentration of 30,000 cells/mL. To each well of a 96-well plate (Corning® Costar®), 100 μL of the cell-media solution was added with a multichannel pipette. The cultures were incubated at 37° C. in an atmosphere of 5% CO2 and 95% humidified air for 24 hours. The test compounds were added to the plate as follows: test substances were diluted in DMSO to a concentration of 1 mM and 10-fold serial dilutions were performed on a separate 96-well plate. Fresh culture medium (100 μL) was added to each well of cells to constitute 200 μL of medium per well followed by 2 μL of each test agent. Compounds were tested in duplicate (≧2 times) at six concentrations between 0-100 nM or 0-1000 nM. Following addition, cultures were incubated for an additional 72 hours.
A phosphatase assay was used to establish the IC50 values as follows: the media in each cell was removed and 100 μL of phosphatase solution (100 mg phosphatase substrate in 30 mL 0.1 M NaOAc, pH 5.5, 0.1% Triton® X-100 buffer) was added to each well. The plates were incubated at 37° C. for 5 minutes. After the given incubation time, 50 μL of 0.1 N NaOH was added to each well and the absorption at 405 nm was determined using a 96 well plate reader. As the absorption is directly proportional to the number of living cells, the IC50 values were calculated and the reported values represent of the average of ≧4 determinations (SD±10%).

[2] = system: L1210 murine leukemia cells; experiment: In vivo antitumor activity, L1210 implanted ip in B6D2F1 mice; set-up: species or system mouse
Description: [Wolfe et al., J. Med. Chem. 2012, 55:5878-5886.] Therefore, the preliminary evaluation of the in vivo antitumor activity of the cyclic N—O pro-drugs was assessed with Compound (+)-6 and was conducted alongside seco-CBI-indole2 (Compound 4) in an antitumor model consisting of L1210 murine leukemia cells implanted ip in B6D2F1 mice traditionally used to initially compare new duocarmycin derivatives (Table 3, below).
B6D2F1 mice were injected intraperitoneally (i.p.) with syngeneic L1210 cells (1×10^6) on day 0. Ten mice were randomly assigned to control vehicle or treatment groups for Compounds (+)-4 and (+)-6 at doses of 60, 100, 250, and 500 μg/kg/inj for Compounds (+)-4 or 60, 200, 500, 1000, and 2500 μg/kg/inj for Compounds (+)-6. Compounds (+)-4 and (+)-6 were formulated in 100% DMSO. Both compounds were injected i.p. on days 1, 5, and 9. Following injection of tumor cells, animals were monitored daily and weighed two times per week. Percent survival (T/C) for treated and control groups were determined by dividing the total survival days for each treatment group by the total survival days for the control group and multiplying×100. All animal studies were carried out in the animal facilities of The University of Kansas Medical Center with strict adherence to the guidelines of the IACUC Animal Welfare Committee of KUMC (IACUC approval #2009-1837).

[3] = Stability to basic conditions (NaHCO3); format: physicochemical; settings: 23° C.
physchem = settings: buffer
[4] = system: L1210 murine leukemia cells; settings: literature dose range; cited from earlier work
[5] = Mus musculus, L1210, 72 h, read-out: IC50 L1210 natural, natural enantiomer, 72 hours
[6] = Mus musculus, L1210, 72 h, read-out: IC50 L1210 unnatural, unnatural enantiomer, 72 hours
[7] = 60 μg/kg i.p. on days 1, 5 and 9
[8] = 100 μg/kg i.p. on days 1, 5 and 9
[9] = 250 μg/kg i.p. on days 1, 5 and 9
[10] = 500 μg/kg i.p. on days 1, 5 and 9
[11] = 1000 μg/kg i.p. on days 1, 5 and 9
[12] = 2500 μg/kg i.p. on days 1, 5 and 9

For `CNC(=O)c1cccc2c3c(cc(O)c12)N(C(=O)c1cc2cc(NC(=O)c4cc5ccccc5[nH]4)ccc2[nH]1)CC3CCl` (racemic) [Compound 19, 3-(5-(1H-Indole-2-carboxamido)-1H-indole-2-carbonyl)-1-(chloromethyl)-5-hydroxy-N-methyl-1,2-dihydrobenzo-[e]indole-6-carboxamide], the DNA alkylation (w794 DNA) was “alkylate DNA in a manner analogous to Compound (+)-4”, the “times less potent than seco-(+)-CBI-indole2” value ([1]; L1210, racemic mixture) was 2.5 times and the IC50 ([1]; Mus musculus, L1210, 72 h, read-out: IC50 L1210, tested as a racemic mixture, 72 hours) was 0.073 nM.
In the case of `CC(C)(C)OC(=O)N1CC2CC23C1=CC(=O)c1ccccc13` (single isomer, unassigned; (+)) [(+)-N—Boc-CBI, reference compound], the IC50 ([1]; natural enantiomer, 72 hours, read-out: IC50 L1210 natural) is reported as 80 nM and the IC50 ([1]; unnatural enantiomer, 72 hours, read-out: IC50 L1210 unnatural) is reported as 900 nM.
Molecule `COC(=O)c1cc2c([nH]1)C(=O)C=C1N(C(=O)c3cc4cc(OC)c(OC)c(OC)c4[nH]3)C[C@H]3CC123` (stereo partly drawn) [Compound 1, Duocarmycin SA, reference compound] has an IC50 [1, 5] of 0.01 nM and an IC50 [1, 6] of 0.1 nM.
Molecule `COc1c(O)c2c(c3cc(C(=O)N4CCc5c4c(O)c(OC)c4[nH]c(C(=O)N6C[C@H]7CC78C6=CC(=O)c6[nH]cc(C)c68)cc54)[nH]c13)CCN2C(N)=O` (stereo partly drawn) [Compound 2, CC-1065, reference compound] has an IC50 [1, 5] of 0.02 nM and an IC50 [1, 6] of 0.02 nM.
In the case of `O=C(Nc1ccc2[nH]c(C(=O)N3C[C@@H](CCl)c4c3cc(O)c3ccccc43)cc2c1)c1cc2ccccc2[nH]1` [Compound 4, seco-CBI-indole2, reference compound], the “MSP (Mean Survival Period)” value [2, 7] is reported as greater than 50 days, the “Surviving Mice (live animals after 366 days)” value (from here on “Surviving Mice”) [2, 7] is reported as 1/10 and the “T/C = Treated/Control (MSP) × 100” value [2, 7] is reported as greater than 284. The “MSP (Mean Survival Period)” value [2, 8] was 6.4 days, the “Surviving Mice” value [2, 8] was 0/10 and the “T/C = Treated/Control (MSP) × 100” value [2, 8] was 36. For the same molecule, the “MSP (Mean Survival Period)” value [2, 9] was 3.7 days, the “Surviving Mice” value [2, 9] was 0/10 and the “T/C = Treated/Control (MSP) × 100” value [2, 9] was 21. The “MSP (Mean Survival Period)” value [2, 10] was 3.0 days, the “Surviving Mice” value [2, 10] was 0/10 and the “T/C = Treated/Control (MSP) × 100” value [2, 10] was 17. The IC50 ([1]; Mus musculus, L1210, natural enantiomer, 72 hours, read-out: IC50 L1210 natural) was 0.03 nM and the IC50 ([1]; Mus musculus, L1210, unnatural enantiomer, 72 hours, read-out: IC50 L1210 unnatural) was 0.9 nM.
In the case of `CN1Oc2cc3c(c4cccc(c24)C1=O)C(CCl)CN3C(=O)OC(C)(C)C` (stereo not drawn) [Compound 12, tert-Butyl 10-(Chloromethyl)-5-methyl-4-oxo-9,10-dihydro-4H-pyrrolo[3′,2′:5,6]naphtho[1,8-de][1,2]oxazine-8(5H)-carboxylate], the “time unreactive toward NaHCO3” value ([3]; NaHCO3 in THF, MeOH, DMF/H2O) is reported as “more than 5 days”, the half-life (physchem) is reported as 24 h and the IC50 [1, 5] is reported as 850 nM. It also gave an IC50 [1, 6] greater than 1000 nM.
With `CC(C)(C)OC(=O)N1CC(CCl)c2c1cc1c3c(cccc23)C(=O)NO1` (stereo not drawn) [Compound 15, tert-Butyl 10-(Chloromethyl)-4-oxo-9,10-dihydro-4H-pyrrolo[3′,2′:5,6]naphtho[1,8-de][1,2]oxazine-8(5H)-carboxylate] the half-life ([3]; NaHCO3 in MeOH, read-out: t1/2 with NaHCO3 (converted)) was 70 h, the “stability to NaHCO3” value ([3]; NaHCO3 in THF/H2O) was “stable” and the half-life (physchem) was 2 h. For the same molecule, the IC50 [1, 5] was 650 nM and the IC50 [1, 6] was greater than 1000 nM.
For `O=C(Nc1ccc2[nH]c(C(=O)N3C[C@@H](CCl)c4c3cc(O)c3ccccc43)cc2c1)c1cc2ccccc2[nH]1` [Compound (+)-4, seco-CBI-indole2, reference compound], the “Surviving Mice” value [2, 7] was 1/10, the “T/C = Treated/Control (MSP) × 100” value [2, 7] was > 284 and 284 and the “toxicity in tumor-bearing mice” value ([2]; all higher doses (100-500 μg/kg)) was “proved toxic leading to premature death of the animals due to drug toxicity”. The “toxicity in tumor-bearing mice” value ([2]; dosing at 60 to 500 μg/kg) was “premature death” and the “therapeutic window (dose range)” value [4] was 0.03 to 0.1 mg/kg.
In the case of `CN1Oc2cc3c(c4cccc(c24)C1=O)[C@H](CCl)CN3C(=O)c1cc2cc(NC(=O)c3cc4ccccc4[nH]3)ccc2[nH]1` [Compound (+)-6, N-(2-(10-(Chloromethyl)-5-methyl-4-oxo-5,8,9,10-tetrahydro-4H-pyrrolo[3′,2′:5,6]naphtho[1,8-de][1,2]oxazine-8-carbonyl)-1H-indol-5-yl)-1H-indole-2-carboxamide], the “T/C = Treated/Control (MSP) × 100” value ([2]; 200 μg/kg i.p. on days 1, 5 and 9) is reported as 386, the “Surviving Mice” value [2, 10] is reported as 4/10 and the “T/C = Treated/Control (MSP) × 100” value [2, 10] is reported as greater than 1142. The “Surviving Mice” value [2, 11] was 4/10, the “T/C = Treated/Control (MSP) × 100” value [2, 11] was greater than 1130 and the “Surviving Mice” value [2, 12] was 6/10. The “T/C = Treated/Control (MSP) × 100” value [2, 12] was greater than 1500, the “delayed toxicity in long term survivors” value ([2]; 366 days (1 year)) was “no evidence of a delayed toxicity” and the “tolerance at the injection sites” value ([2]; i.p. administration, versus free drug) was “tolerated at the injection sites of the animals much better than the free drug”. For the same molecule, the “dosing permitted over that of the free drug” value ([2]; versus free drug) was no less than 40 fold, the “in vivo potency relative to the free drug” value ([2]; versus free drug) was no more than 3 fold and the DNA alkylation (w794 DNA) was “incapable of alkylating DNA”. For the same molecule, the “difference in potency between Compound (+)-6 and Compound (+)-7” value ([1]; L1210) was 3 fold, the IC50 [1, 5] was 0.99 nM and the IC50 ([1]; read-out: IC50 L1210 natural, natural enantiomer, 72 hours) was roughly 1 nM.
With `O=C(Nc1ccc2[nH]c(C(=O)N3C[C@@H](CCl)c4c3cc3c5c(cccc45)C(=O)NO3)cc2c1)c1cc2ccccc2[nH]1` [Compound (+)-7, N-(2-(10-(Chloromethyl)-4-oxo-5,8,9,10-tetrahydro-4H-pyrrolo[3′,2′:5,6]naphtho[1,8-de][1,2]oxazine-8-carbonyl)-1H-indol-5-yl)-1H-indole-2-carboxamide] the “DNA alkylation after thiol activation” value (w794 DNA; incubated with 1 M L-glutathione at 37° C.) was “results in DNA alkylation; also recorded: slow DNA alkylation reaction” and the DNA alkylation (w794 DNA) was “No DNA alkylation; also recorded: failed to alkylate DNA”.
